# Assays:
# Type in all cases: biochemical
# [1] = molecular target: CDK-2 enzyme, complexed with cyclin A (Homo sapiens, UniProt P24941); assay: CDK2 kinase assay (33P peptide phosphorylation); settings: 0.1 mM ATP, cyclin A complex
# Procedure: (§1) The assay mixture containing the inhibitor and CDK-2 enzyme, complexed with cyclin A (0.4 U/ml) was mixed together in a microtiter plate in a final volume of 50 μl and incubated for 40 min at 30° C. The assay mixture contained 0.1 mM unlabeled ATP, 0.01 μCi/μl ^33P-γ-ATP, 0.03 mM peptide, 0.1 mg/ml BSA, 7.5 mM magnesium acetate, 50 mM HEPES-NaOH, pH 7.5. The reaction was stopped by adding 50 μl of 50 mM phosphoric acid. 90 μl of the mixture were transferred to a pre-wetted 96-well Multiscreen MAPHNOB filtration plate (Millipore) and filtered on a vacuum manifold. The filter plate was washed with 3 successive additions of 200 μl 50 mM phosphoric acid and then with 100 μl methanol. The filtration plate was dried for 10 min at 65° C., scintillant added and phosphorylated peptide quantified in a scintillation counter (Trilux, PerkinElmer)
# [2] = molecular target: T1, PKA (Homo sapiens, UniProt P17612); assay: PKA kinase assay (Kemptide substrate); settings: 100 μM ATP
# T1 construct: purchased Upstate
# Procedure: as §1
# The PKA assay was incubated at 30° C. for 30 minutes.
# [3] = molecular target: T2, PDK1 (Homo sapiens, UniProt O15530); assay: PDK1 kinase assay (33P peptide phosphorylation); settings: 0.01 mM ATP, 60 min at 30° C.; read-out: PDK-1 IC50
# T2 sequence (O15530 1-556): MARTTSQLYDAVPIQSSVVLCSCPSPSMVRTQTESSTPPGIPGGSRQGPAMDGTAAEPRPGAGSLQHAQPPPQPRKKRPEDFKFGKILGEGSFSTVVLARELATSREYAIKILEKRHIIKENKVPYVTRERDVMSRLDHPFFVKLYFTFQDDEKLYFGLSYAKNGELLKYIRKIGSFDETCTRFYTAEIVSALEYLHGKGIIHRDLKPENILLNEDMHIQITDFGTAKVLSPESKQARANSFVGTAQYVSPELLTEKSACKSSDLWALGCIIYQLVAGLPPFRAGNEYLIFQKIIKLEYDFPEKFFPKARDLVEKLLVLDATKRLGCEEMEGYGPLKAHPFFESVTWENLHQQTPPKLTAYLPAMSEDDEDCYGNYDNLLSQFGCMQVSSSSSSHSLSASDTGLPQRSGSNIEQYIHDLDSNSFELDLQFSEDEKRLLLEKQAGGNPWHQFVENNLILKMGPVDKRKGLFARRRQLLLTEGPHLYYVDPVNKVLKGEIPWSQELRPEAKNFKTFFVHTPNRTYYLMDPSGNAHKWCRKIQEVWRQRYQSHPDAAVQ
# Procedure: as §1, with “and PDK1 enzyme” for “and CDK-2 enzyme, complexed with cyclin A (0.4 U/ml)”, “for 60” for “for 40”, “contained 0.01” for “contained 0.1”, “^33P-γ-ATP, 0.075” for “^33P-γ-ATP, 0.03”, “acetate, 0.05M Tris.HCl,” for “acetate, 50 mM HEPES-NaOH,”, “pH 7.5, 0.5% 2-mercaptoethanol.” for “pH 7.5.”
# [4] = molecular target: T3, Akt1 (Homo sapiens, UniProt P31749); assay: Akt1 kinase assay (Histone H1 substrate); settings: 200 μM ATP, read-out: AKT-1 IC50
# T3 construct: purchased Upstate
# Procedure: Assays for the cyclin dependent kinase activity were carried out by monitoring the phosphorylation of a synthetic peptide, HATTPKKKRK. The assay mixture containing the inhibitor and CDK-2 enzyme, complexed with cyclin A (0.4 U/ml) was mixed together in a microtiter plate in a final volume of 50 μl and incubated for 40 min at 30° C. The assay mixture contained 0.1 mM unlabeled ATP, 0.01 μCi/μl ^33P-γ-ATP, 0.03 mM peptide, 0.1 mg/ml BSA, 7.5 mM magnesium acetate, 50 mM HEPES-NaOH, pH 7.5. The reaction was stopped by adding 50 μl of 50 mM phosphoric acid. 90 μl of the mixture were transferred to a pre-wetted 96-well Multiscreen MAPHNOB filtration plate (Millipore) and filtered on a vacuum manifold. The filter plate was washed with 3 successive additions of 200 μl 50 mM phosphoric acid and then with 100 μl methanol. The filtration plate was dried for 10 min at 65° C., scintillant added and phosphorylated peptide quantified in a scintillation counter (Trilux, PerkinElmer)
# Protocol for the Akt assay is the same for CDK2 except that, 3 nM Akt1 (Upstate) was used with Histone H1 as substrate with a final ATP concentration of 200 μM. The reaction was incubated at 30° C. for 40 minutes.
# [5] = molecular target: T4, GST-Chk1 enzyme (Homo sapiens, UniProt O14757); assay: Chk1 kinase assay (33P Chktide phosphorylation); settings: 0.01 mM ATP, 40 minutes at 30° C.; read-out: CHK-1 IC50
# T4 sequence (O14757 1-476): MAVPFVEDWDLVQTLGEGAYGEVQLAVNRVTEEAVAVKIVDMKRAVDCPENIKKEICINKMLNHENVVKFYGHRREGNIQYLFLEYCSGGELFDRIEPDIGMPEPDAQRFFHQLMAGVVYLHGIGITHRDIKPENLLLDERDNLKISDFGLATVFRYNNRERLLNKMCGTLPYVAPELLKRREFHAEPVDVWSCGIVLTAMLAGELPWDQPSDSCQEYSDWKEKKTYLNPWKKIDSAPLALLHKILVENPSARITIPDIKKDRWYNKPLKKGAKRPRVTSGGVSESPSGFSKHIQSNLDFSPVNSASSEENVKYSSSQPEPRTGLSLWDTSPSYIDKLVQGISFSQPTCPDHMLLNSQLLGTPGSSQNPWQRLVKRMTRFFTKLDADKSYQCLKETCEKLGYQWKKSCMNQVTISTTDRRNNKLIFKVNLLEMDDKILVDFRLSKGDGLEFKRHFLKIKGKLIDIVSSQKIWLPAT
# Procedure: as §1, with “and Chk1 enzyme” for “and CDK-2 enzyme, complexed with cyclin A (0.4 U/ml)”, “40 minutes” for “40 min”, “C. […]” for “C. The assay mixture contained 0.1 mM unlabeled ATP, 0.01 μCi/μl ^33P-γ-ATP, 0.03 mM peptide, 0.1 mg/ml BSA, 7.5 mM magnesium acetate, 50 mM HEPES-NaOH, pH 7.5.”, “mixture was” for “mixture were”, “96-well multi-screen” for “96-well Multiscreen”
# T3 sequence (P31749 whole entry, species assumed): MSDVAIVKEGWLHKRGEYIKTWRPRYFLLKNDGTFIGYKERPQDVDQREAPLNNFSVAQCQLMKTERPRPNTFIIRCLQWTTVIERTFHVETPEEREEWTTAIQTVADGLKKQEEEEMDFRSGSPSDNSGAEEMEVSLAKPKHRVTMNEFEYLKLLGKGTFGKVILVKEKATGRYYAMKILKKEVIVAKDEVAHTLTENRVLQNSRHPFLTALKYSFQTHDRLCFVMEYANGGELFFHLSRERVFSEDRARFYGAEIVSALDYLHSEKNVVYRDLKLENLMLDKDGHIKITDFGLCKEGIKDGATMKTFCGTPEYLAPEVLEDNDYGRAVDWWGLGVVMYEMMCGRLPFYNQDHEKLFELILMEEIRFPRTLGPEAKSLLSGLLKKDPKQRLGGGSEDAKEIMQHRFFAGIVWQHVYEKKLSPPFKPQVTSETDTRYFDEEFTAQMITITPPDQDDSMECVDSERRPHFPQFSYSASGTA
Compound,IC50 [1] [µM],IC50 [2] [µM],IC50 [3] [µM],IC50 [4] [µM],IC50 [5] [µM]
"Cc1[nH]nc(-c2nc3ccccc3[nH]2)c1C(=O)NC1CCNCC1 [Example 1, 3-(1H-Benzoimidazol-2-yl)-5-methyl-1H-pyrazole-4-carboxylic Acid piperidin-4-ylamide]",3.3,7.26,0.108,17.1,0.098
"Cc1cc2nc(-c3n[nH]c(C)c3C(=O)NC3CCCNC3)[nH]c2cc1C (centres unmarked) [Example 2, 3-(5,6-Dimethyl-1H-benzoimidazol-2-yl)-5-methyl-1H-pyrazole-4-carboxylic Acid piperidin-3-ylamide]",3.6,7.84,0.219,15.9,0.055
"Cc1cc2nc(-c3n[nH]c(C)c3C(=O)NC3CCCN(C)C3)[nH]c2cc1C (centres unmarked) [Example 3, 3-(5,6-Dimethyl-1H benzoimidazole-2-yl)-5-methyl-1H-pyrazole-4-carboxylic Acid (1-methyl-piperidin-3-yl)-amide]",30.9,23.4,0.44,41.3,0.077
"Cc1[nH]nc(-c2nc3ccccc3[nH]2)c1C(=O)NCCCN [Example 4, 3-(1H-Benzoimidazol-2-yl)-5-methyl-1H-pyrazole-4-carboxylic Acid (3-amino-propyl)-amide]",39.8,20.7,0.212,> 50,0.031
"Cc1[nH]nc(-c2nc3cc4ccccc4cc3[nH]2)c1C(=O)NC1CCNCC1 [Example 5, 5-Methyl-3-(1H-naphtho[2,3-d]imidazol-2-yl)-1H-pyrazole-4-carboxylic Acid piperidine-4-ylamide]",4.54,3.24,0.058,> 50,0.01
"CCOC(=O)c1ccc2nc(-c3n[nH]c(C)c3C(=O)NC3CCNCC3)[nH]c2c1 [Example 6, 2-[5-Methyl-4-(piperidin-4-ylcarbamoyl)-1H-pyrazol-3-yl]-3H-benzimidazole-5-carboxylic Acid Ethyl Ester]",39.5,40.2,0.433,> 50,0.023
"Cc1[nH]nc(-c2nc3ccc(C(=O)NC4CCCC4)cc3[nH]2)c1C(=O)NC1CCNCC1 [Example 7, 2-[5-Methyl-4-(piperidin-4-ylcarbamoyl)-1H-pyrazol-3-yl]-3H-benzimidazole-5-carboxylic Acid Cyclopentylamide]",9.24,12.6,0.07,28.6,0.043
"Cc1[nH]nc(-c2nc3ccc(-c4cc5ccccc5[nH]4)cc3[nH]2)c1C(=O)NC1CCNCC1 [Example 8, 3-[6-(1H-Indol-2-yl)-1H-benzimidazo-2-yl]-5-methyl-1H-pyrazole-4-carboxylic Acid piperidin-4-ylamide]",2.8,1.34,0.019,5.84,0.012
Cc1[nH]nc(-c2nc3ccccc3[nH]2)c1C(=O)NCC1CCNCC1 [Example 9],47,7.51,0.129,11.1,0.208
Cc1[nH]nc(-c2nc3ccccc3[nH]2)c1C(=O)NC1CCN(Cc2ccccc2)CC1 [Example 10],44,29.1,0.435,> 50,0.107
Cc1[nH]nc(-c2nc3cc4nc[nH]c4cc3[nH]2)c1C(=O)NC1CCNCC1 [Example 11],38.9,7.77,0.12,> 50,0.088
Cc1[nH]nc(-c2nc3c(F)c(F)ccc3[nH]2)c1C(=O)NC1CCNCC1 [Example 12],10.5,20.9,0.485,> 50,0.609
Cc1[nH]nc(-c2nc3cc(F)c(F)cc3[nH]2)c1C(=O)NC1CCNCC1 [Example 13],7.92,19.3,0.52,> 50,0.508
Cc1[nH]nc(-c2nc3cc(Cl)c(Cl)cc3[nH]2)c1C(=O)NC1CCNCC1 [Example 15],4.77,8.85,0.123,> 50,0.295
Cc1[nH]nc(-c2nc3ccccc3[nH]2)c1C(=O)NCCCCN [Example 16],43.5,20.7,0.249,> 50,0.213
Cc1[nH]nc(-c2nc3cc(Cl)ccc3[nH]2)c1C(=O)NC1CCNCC1 [Example 17],10.6,9.03,0.189,> 50,0.222
Cc1[nH]nc(-c2nc3cc(C#N)ccc3[nH]2)c1C(=O)NC1CCNCC1 [Example 18],12.2,22.6,0.311,> 50,0.137
Cc1[nH]nc(-c2nc3ccccc3[nH]2)c1C(=O)NC1CCCNC1 (centres unmarked) [Example 19],4.47,10.9,0.05,> 50,0.058
Cc1[nH]nc(-c2nc3ccc(C(=O)NC4CCc5ccccc54)cc3[nH]2)c1C(=O)NC1CCNCC1 (centres unmarked) [Example 48],–,–,< 0.05,–,–
Cc1[nH]nc(-c2nc3ccc(C(C)C)cc3[nH]2)c1C(=O)NC1CC2CCC(C1)N2C (centres unmarked) [Example 49],–,–,< 0.5,–,< 0.5
Cc1[nH]nc(-c2nc3ccccc3[nH]2)c1C(=O)NCCN [Example 50],–,–,< 0.5,–,< 0.5

# From patent publication US20090131470A1, “PYRAZOLE-SUBSTITUTED BENZIMIDAZOLE DERIVATIVES FOR USE IN THE TREATMENT OF CANCER AND AUTOIMMUNE DISORDERS” (priority 2005, published 2009)
